Assay results from US11639940B2, “Method for determining sensitivity of cyclin-dependent kinase 4/6 inhibitor” (SYSMEX CORPORATION, priority 2019, dated 2023).
Where two headings read alike, the source gives them in different places.

Tests used:
DU4475 = assay: cytotoxicity test using WST-8 (number of viable cells); assay type: cell-based; settings: Homo sapiens, DU-4475, 48 h, DU4475, 48 hours
Excerpt: (§1) Six types of breast cancer cell lines, T47D, MCF7, HCC1500, CAMA-1, DU4475 and MDA-MB-231, were used. T47D, MCF7, HCC1500 and CAMA-1 are HER2-negative/ER-positive breast cancer cell lines, and DU4475 and MDA-MB-231 are cell lines derived from triple negative breast cancer (TNBC). […] In the analysis, the survival rate of the untreated cell line was set to 100%.

HCC1500 = assay: as above; assay type: cell-based; settings: HCC1500, 48 hours
Excerpt: as §1

MCF7 = assay: as above; assay type: cell-based; settings: Homo sapiens, MCF7, 48 hours
Excerpt: as §1

MDA-MB-231 = assay: as above; assay type: cell-based; settings: Homo sapiens, MDA-MB-231, 48 hours
Excerpt: as §1

T47D = assay: as above; assay type: cell-based; settings: Homo sapiens, 48 hours
Excerpt: as §1

CAMA-1 = assay: as above; assay type: cell-based; settings: Homo sapiens, CAMA-1, 48 hours
Experimental: as §1, with “100%. The IC50 value was calculated from the normalized data by performing curve fitting using KaleidaGraph 4.0.” for “100%.”

CDK2 [1] = assay: expression level by Western blot in lysate of treated breast cancer cell lines; assay type: cell-based; settings: 48 h
Experimental: (§2) After 48 hours, cells were recovered.
(§3) To quantitatively analyze the expression levels, recombinant CDK proteins (rCDK2, rCDK4 and rCDK6) were electrophoresed at 5.0 ng, 2.5 ng, 1.0 ng, 0.75 ng, 0.5 ng and 0.2 ng as standard proteins.

CDK6 = assay: as above; assay type: cell-based; settings: 48 h
Experimental: as §2, §3

CDK2 [2] = assay: CDK activity (phosphorylated substrate peptide, HISCL ELISA) in lysate of treated breast cancer cell lines; assay type: cell-based; design: CDK2 Activity: unit not given here; settings: 48 h; for CDK2 Specific activity: activity/expression level
Experimental: After 48 hours, cells were recovered. […] Specifically, it was performed as follows. […] The composition of the substrate solution was as follows. […] The measurement was performed by Automated Immunoassay System […] Corporation). This measurement is based on ELISA on magnetic particles.

breast cancer cell lines = assay: cytotoxicity test using WST-8, summary over the cell lines; assay type: cell-based
Excerpt: as §1

CDK4 = settings: 48 h
Experimental: After 48 hours, cells were recovered. A cell solubilization buffer was added to a cell pellet to be 5×10^7 cells/mL to lyse the cells, and the supernatant was recovered by centrifugation to obtain a cell lysate (hereinafter also referred to as a “lysate sample”).
The expression levels of CDK2, CDK4 and CDK6 were measured by Western blot as follows. Samples for electrophoresis (1 mg/mL lysate sample, 2×sample buffer and 10% 2-mercaptoethanol) were prepared from each lysate sample obtained in the above (2). Each of samples for electrophoresis (10 μL/lane) was electrophoresed on a polyacrylamide gel. To quantitatively analyze the expression levels, recombinant CDK proteins (rCDK2, rCDK4 and rCDK6) were electrophoresed at 5.0 ng, 2.5 ng, 1.0 ng, 0.75 ng, 0.5 ng and 0.2 ng as standard proteins. The gel after electrophoresis was transferred to a membrane by a conventional method, and a primary reaction was performed using an anti-CDK2 antibody, an anti-CDK4 antibody, and an anti-CDK6 antibody. Then, a secondary reaction was performed using an HRP-labeled antibody, and further reacted with SuperSignal West Femto Substrate (Thermo Fisher), and a chemiluminescent signal was detected with an X-ray film. The blot was quantitatively analyzed by Image Lab 5.2.1 (Bio Rad) to calculate the expression levels (nmol/L) of CDK2, CDK4 and CDK6 in each lysate sample.

## CC(=O)c1c(C)c2cnc(Nc3ccc(N4CCNCC4)cn3)nc2n(C2CCCC2)c1=O [palbociclib]
DU4475
  IC50: > 10 µM
HCC1500
  IC50: 5.36 µM
MCF7
  IC50: 0.767 µM
MDA-MB-231
  IC50: 0.475 µM
T47D
  IC50: 0.202 µM
CAMA-1
  IC50: 0.888 µM
CDK2 [1]; CAMA-1, palbociclib 426 nM
  Expression level CDK2: 2.8 nmol/L
CDK2 [1]; DU4475, palbociclib 426 nM
  Expression level CDK2: 12.3 nmol/L
CDK2 [1]; HCC1500, palbociclib 426 nM
  Expression level CDK2: 2.9 nmol/L
CDK2 [1]; MCF7, palbociclib 426 nM
  Expression level CDK2: 3.0 nmol/L
CDK2 [1]; MDA-MB-231, palbociclib 426 nM
  Expression level CDK2: 3.0 nmol/L
CDK2 [1]; T47D, palbociclib 426 nM
  Expression level CDK2: 5.7 nmol/L
CDK6; CAMA-1, palbociclib 426 nM
  Expression level CDK6: 0.4 nmol/L
CDK6; DU4475, palbociclib 426 nM
  Expression level CDK6: 60.9 nmol/L
CDK6; HCC1500, palbociclib 426 nM
  Expression level CDK6: 0.4 nmol/L
CDK6; MCF7, palbociclib 426 nM
  Expression level CDK6: 4.3 nmol/L
CDK6; MDA-MB-231, palbociclib 426 nM
  Expression level CDK6: 20.1 nmol/L
CDK2 [2]; CAMA-1, palbociclib 426 nM
  CDK2 Activity: 0.7
  CDK2 Specific activity: 0.25
CDK2 [2]; DU4475, palbociclib 426 nM
  CDK2 Activity: 14.5
  CDK2 Specific activity: 1.17
CDK2 [2]; HCC1500, palbociclib 426 nM
  CDK2 Activity: 0.7
  CDK2 Specific activity: 0.25
CDK2 [2]; MCF7, palbociclib 426 nM
  CDK2 Activity: 1.6
  CDK2 Specific activity: 0.53
CDK2 [2]; MDA-MB-231, palbociclib 426 nM
  CDK2 Activity: 0.7
  CDK2 Specific activity: 0.24
CDK2 [2]; T47D, palbociclib 426 nM
  CDK2 Activity: 2.1
  CDK2 Specific activity: 0.36
Breast cancer cell lines; average over the breast cancer cell lines, read-out: IC50 Average
  IC50: 1.54 µM
Breast cancer cell lines; median over the breast cancer cell lines, read-out: IC50 Median
  IC50: 0.767 µM
CDK4; CAMA-1, palbociclib 426 nM
  Expression level CDK4: 18.9 nmol/L
CDK4; DU4475, palbociclib 426 nM
  Expression level CDK4: 16.6 nmol/L
CDK4; HCC1500, palbociclib 426 nM
  Expression level CDK4: 12.7 nmol/L
CDK4; MCF7, palbociclib 426 nM
  Expression level CDK4: 39.4 nmol/L
CDK4; MDA-MB-231, palbociclib 426 nM
  Expression level CDK4: 20.7 nmol/L
CDK4; T47D, palbociclib 426 nM
  Expression level CDK4: 18.8 nmol/L
